For 1 compound, relative lipid content results are on record in patent US11484557B2, “Human-derived Lactobacillus fermentum MG4231 or Lactobacillus fermentum MG4244 strain having anti-obesity activity, and composition comprising same” (MEDIOGEN CO., LTD., priority 2018, dated 2022).

The assay concerns 3T3-L1 preadipocytes. The assay can be described thus: Inhibition of preadipocyte differentiation, Oil Red O lipid accumulation. It counts as cell-based. Conditions: positive control, 100 μM baicalin. On the procedure:
In order to select a strain having excellent obesity prevention and treatment effects among the strains obtained in the Example 1, an experiment was conducted to identify the ability thereof to inhibit differentiation of preadipocytes into adipocytes. To induce the differentiation of 3T3-L1 preadipocytes, the preadipocytes were dispensed into each 96-well plate at 1.25×10^5 cells/well. After 2 days, the medium was changed so that the cells were completely fused on the 4th day. MDI (0.5 mM 3-isobutyl-1-methylxanthine), 1 μM dexamethasone and 1 μg/mL of insulin solution added to 10% FBS DMEM medium. Subsequently, in the experimental group, the culture supernatant of the strain obtained in Example 1 was added to the medium at a concentration of 1,000 μg/mL. […] Adipocyte differentiation was completed after 6 days, and the amount of lipid accumulated in the cell was measured using Oil Red 0 (Sigma, USA), which reacts specifically with the lipid drop generated in the cell. […] For quantification, distilled water was removed, isopropyl alcohol was added to a completely dry well, and then, absorbance was measured at 520 nm. Then, a degree of inhibition of adipocyte differentiation ability was analyzed by comparing the produced lipid drop content with that of the MDI treatment group based on the measured absorbance.

With `O=C(O)[C@H]1O[C@@H](Oc2cc3oc(-c4ccccc4)cc(=O)c3c(O)c2O)[C@H](O)[C@@H](O)[C@@H]1O` [baicalin], the relative lipid content came out at 81.40%.
